Experimental data reported in patent US20040224884A1, “Methods of screening for apoptosis-controlling agents for bone anabolic therapies and uses thereof” (priority 1998, published 2004).

Legend:
[1] = target: T1, murine estrogen receptor-alpha (mERα) (Mus musculus, UniProt P19785); experiment: Etoposide-induced apoptosis in HeLa cells stably transfected with mERα; format: cell-based, human; conditions: 10^−8 M, 1 h; etoposide 5×10^−5 M, 6 hour
T1 construct: expressed in transfected cells
T1 sequence (P19785 1-599): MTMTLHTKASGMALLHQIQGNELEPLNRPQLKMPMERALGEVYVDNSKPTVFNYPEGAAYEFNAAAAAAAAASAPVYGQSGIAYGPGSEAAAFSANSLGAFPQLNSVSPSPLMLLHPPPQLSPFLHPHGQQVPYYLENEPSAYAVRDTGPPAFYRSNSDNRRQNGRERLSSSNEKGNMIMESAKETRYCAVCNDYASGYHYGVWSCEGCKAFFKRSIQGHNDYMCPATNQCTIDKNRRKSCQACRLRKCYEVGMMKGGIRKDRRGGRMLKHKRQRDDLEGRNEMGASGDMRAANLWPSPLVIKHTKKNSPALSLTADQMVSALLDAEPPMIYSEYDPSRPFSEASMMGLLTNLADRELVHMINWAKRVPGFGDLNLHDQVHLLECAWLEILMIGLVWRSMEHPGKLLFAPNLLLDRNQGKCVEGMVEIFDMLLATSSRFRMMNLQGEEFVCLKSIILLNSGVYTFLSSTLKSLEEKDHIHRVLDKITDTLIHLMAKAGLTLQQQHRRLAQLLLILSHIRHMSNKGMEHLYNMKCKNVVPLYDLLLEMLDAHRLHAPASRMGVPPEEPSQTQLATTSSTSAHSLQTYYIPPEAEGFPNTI
Description: CMV promoter alone and CMV promoter-driven cDNA for mERα or mErβ were stably transfected into HeLa cells. […] Cells were trypsinized, pelleted and trypan blue positive cells enumerated.
In this experiment, instead of calvaria cells, human HeLa cells which contain undetectable, if any, estrogen receptor were used. HeLa cells were stably transfected with either a CMV promoter-driven cDNA for the murine estrogen receptor-alpha (mERα) or a CMV promoter-driven cDNA for the murine estrogen receptor-beta (mERβ). […] Cells were trypsinized, pelleted and trypan blue positive cells were enumerated.

[2] = target: T2, human ERα (Homo sapiens, UniProt P03372); experiment: ERE-luciferase reporter in 293 cells overexpressing hERα; format: cell-based; conditions: 3 copies of ERE driving luciferase
T2 construct: expressed in transfected cells; host or cells: 293 human embryonic kidney cells
T2 sequence (P03372 1-595): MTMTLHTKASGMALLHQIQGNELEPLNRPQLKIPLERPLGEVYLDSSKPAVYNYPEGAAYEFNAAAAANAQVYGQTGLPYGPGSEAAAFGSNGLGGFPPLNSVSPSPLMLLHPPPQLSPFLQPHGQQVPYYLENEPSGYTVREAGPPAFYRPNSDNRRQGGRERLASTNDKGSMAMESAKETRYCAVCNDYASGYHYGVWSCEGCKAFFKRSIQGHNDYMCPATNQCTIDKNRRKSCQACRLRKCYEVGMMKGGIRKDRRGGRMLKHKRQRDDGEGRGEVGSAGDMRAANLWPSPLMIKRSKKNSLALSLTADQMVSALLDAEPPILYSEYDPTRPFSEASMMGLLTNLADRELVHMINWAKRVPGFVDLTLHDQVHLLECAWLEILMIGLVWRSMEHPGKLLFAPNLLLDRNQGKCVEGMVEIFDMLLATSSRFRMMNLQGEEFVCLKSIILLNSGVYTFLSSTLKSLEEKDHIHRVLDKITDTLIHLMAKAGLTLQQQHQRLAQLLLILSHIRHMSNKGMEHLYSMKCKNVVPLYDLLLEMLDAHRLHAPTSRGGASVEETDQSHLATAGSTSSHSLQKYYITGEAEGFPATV
Description: The human ERα was overexpressed in 293 cells lacking ERα along with a reporter construct containing 3 copies of a n estrogen response element driving the luciferase gene. Light units were counted and normalized to coexpressed b-galactosidase activity to control for differences in transfection efficiency. Results represent percent stimulation compared to ERα transfected cells, but not treated with the two agents. Each bar represents mean of duplicate experiments +/−SEM. *p<0.001 vs. cells not exposed to the sterols.
In this experiment, hERα was overexpressed in 293 cells (which lack constitutive ERα) along with a reporter construct containing 3 copies of an estrogen response element driving the luciferase gene. Light units were counted and normalized to coexpressed β-galactosidase activity to control for differences in transfection efficiency.

[3] = Vertebral compression strength of fifth lumbar vertebrae (L5); format: in vivo, mice; conditions: 2000 ng/g body weight for 28 days
Procedure: In a representative experiment of this sort, seven 4-5 month old female mice per group-are screened twice for BMD in a four week period immediately prior to the initiation of the experiment to establish that peak adult bone mass has been attained. A subset of mice are then ovariectomized. Intact and ovariectomized mice are treated with vehicle, or 20, 200 or 2000 ng/g body weight estratriene-3-ol or another ANGEL compound. […] Ultimate load bearing properties of the fifth lumbar murine vertebrae (L5) is determined. This is done using a servohydraulic axial-torsional material testing machine (Model MTS 810 Bionx; MTS Systems Corp., Eden Prairie, Minn.) and a Lebow load cell (Eaton Products, Troy, Mich.). Data are recorded and analyzed using the LabVIEW software package and an acquisition/signal conditioning board (Model NB-MIO-16, National Instruments Corporation, Austin, Tex.). The L5 specimens that is used for ultimate load bearing is cleaned of surrounding soft tissue and the length and diameter recorded with a digital caliper at a resolution of 0.01 mm (Mitutoyo Model #500-196, Ace Tools, Ft. Smith, Ariz.). […] Vertebrae are individually compressed between parallel loading platens along the cephalocaudad axis until failure and the ultimate load (in Newtons) and displacement (in mm) are recorded. […]

With `C[C@@]12CCC[C@H]1[C@@H]1CCc3cc(O)ccc3[C@H]1CC2` [estratriene-3-ol] the “inhibition of etoposide-induced apoptosis in HeLa cells transfected with estrogen receptor α” value [1] was “potently inhibited”, the “transactivation of an estrogen response element through estrogen receptor α” value [2] was “did not transactivate” and the “Vertebral Compression” value ([3]; Ovx mice, p < 0.00001) was 85.57 ± 10.17 Newtons. The “Vertebral Compression” value ([3]; intact mice, p < 0.006) was 96.26 ± 15.92 Newtons.
